Assay results from paper PMC4819222, “CD300c is uniquely expressed on CD56^bright Natural Killer Cells and differs from CD300a upon ligand recognition” (Scientific Reports, 2016).

Assays:
CD300a-Ig = molecular target: T1, CD300a-Ig (Homo sapiens, UniProt Q9UGN4); test: ELISA on plates coated with pure lipid; SPR on L1-chip liposomes (Biacore T200); format: binding; conditions: immobilised lipid; Fc fusion protein as analyte
T1 construct: Ig (Fc) fusion protein, Fc as tag
T1 sequence (Q9UGN4 18-180 limits assumed): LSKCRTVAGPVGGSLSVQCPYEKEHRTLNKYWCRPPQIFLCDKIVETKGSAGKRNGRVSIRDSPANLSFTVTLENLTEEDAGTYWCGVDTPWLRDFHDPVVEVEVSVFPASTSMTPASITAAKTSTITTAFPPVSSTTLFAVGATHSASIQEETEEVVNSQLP

CD300c-Ig = molecular target: T2, CD300c-Ig (Homo sapiens, UniProt Q08708); test: as above; format: binding; conditions: immobilised lipid; Fc fusion protein as analyte
T2 construct: extracellular domain fused to Fc fragment of human IgG2 (Fc as tag)
T2 sequence (Q08708 21-183 limits assumed): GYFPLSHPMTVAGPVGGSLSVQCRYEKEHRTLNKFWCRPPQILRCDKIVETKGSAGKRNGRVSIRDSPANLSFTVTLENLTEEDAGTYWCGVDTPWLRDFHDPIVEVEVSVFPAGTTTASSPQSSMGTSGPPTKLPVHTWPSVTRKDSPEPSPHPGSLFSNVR

CCCCCCCC/C=C\CCCCCCCC(=O)O[C@H](COC(=O)CCCCCCCCCCCCCCC)COP(=O)(O)OCCN [PE, 1-palmitoyl-2-oleoyl (PO) phosphatidylethanolamine (POPE)]
ELISA on plates coated with pure lipid; SPR on L1-chip liposomes (Biacore T200) (CD300a-Ig): CD300a-Ig predominantly binds to PE
ELISA on plates coated with pure lipid; SPR on L1-chip liposomes (Biacore T200) (CD300c-Ig): CD300c-Ig binds to both PS and PE at the same level
